Source: patent US11028061B2, “Modulators of myocyte lipid accumulation and insulin resistance and methods of use thereof” (Sanford Burnham Prebys Medical Discovery Institute, priority 2015, dated 2021)

Columns and labels:
[1] = system: primary murine skeletal myocytes; assay: TAG accumulation in primary murine skeletal myocytes; format: cell-based; conditions: Mus musculus; primary murine skeletal myocytes; read-out: Activity Score (IC50), triacylglyceride (TAG) accumulation
[2] = system: human skeletal myotubes; assay: Cellular glucose uptake assay ([3H]-2-deoxyglucose); format: cell-based; conditions: 10 μM SBI-477, 24 hours
Experimental: After differentiation, primary human skeletal myotubes were incubated with the indicated concentration of SBI-477 for 24 hours and then treated with insulin (100 nM) for 30 minutes. Cells were washed in phosphate-buffered saline (PBS) three times at room temperature and then incubated with Krebs-Ringer HEPES buffer (140 mM NaCl, 5 mM KCl, 1 mM CaCl2, 2.5 mM MgSO4, 2.5 mM, NaH2PO4, 20 mM HEPES and 0.1% bovine serum albumin) containing [3H]-2-deoxyglucose (1.0 μCi/mL) for 15 min. Glucose uptake was terminated by washing five times with ice-cold PBS. The cells were then solubilized with 0.5N sodium hydroxide (NaOH). The amount of [3H]-2-deoxyglucose taken up was measured by liquid scintillation analyzer (PerkinElmer) and normalized to total protein.

[3] = system: primary human myotubes; assay: Fatty acid uptake (3H-oleate); format: cell-based; conditions: 10 μM, 24 hours
Experimental: FIGS. 1A-1C show SBI-477 as a small molecule inhibitor of neutral lipid accumulation in human skeletal myotubes. […] Data is shown as percent of DMSO vehicle control. Representative of >5 experiments. FIGS. 1B and 1C show dose-dependent inhibition of myocyte TAG accumulation by SBI-477. FIG. 1B—primary human myotubes were incubated with the indicated concentrations of SBI-477, 1 μM triascin C, 1 μM A922500 (DGAT inhibitor) or vehicle control with 100 μM oleate for 24 hours. Fatty acid free bovine serum albumin (BSA) was included as non-lipid loading control. Bars represent mean triglyceride level normalized to total protein±SD. *p<0.001 vs. oleate/vehicle control by one-way ANOVA with Bonferroni post hoc test. FIG. 1C—primary human myotubes were incubated with 10 μM SBI-477 or vehicle control for 24 hours. Fatty acid (FA) uptake was measured as cellular uptake of 3H-oleate. Bars represent fatty acid uptake normalized to the vehicle control. FIGS. 1D-1F show the effect of SBI-477 on FAO rates in human skeletal myotubes. […] FAO rates were determined by 3H-palmitate oxidation (n=5). […] Total cellular triglyceride levels were determined following incubation with SBI-477 (10 μM) for 24 hours with etomoxir (50 μM) in the absence (FIG. 1E) or presence of 1 mM carnitine (FIG. 1F) (n=4). *p<0.05 vs. vehicle control.

[4] = system: fatty acid transporter, CD36; assay: CD36 gene expression; format: cell-based; conditions: data not shown
Experimental: Total RNA was isolated using RNeasy Mini Kit (Qiagen) according to the manufacturer's instructions. cDNA was synthesized using the Affinity Script cDNA Synthesis Kit (Stratagene) with 0.5 μg of total RNA. PCR reactions were performed in triplicate […] Roche LightCycler® 480 Instrument II) with specific primers for each gene.

[5] = system: human skeletal myotubes; assay: Glycogen synthesis assay in human skeletal myotubes; format: cell-based; conditions: 24 hours
Experimental: Human skeletal myotubes were incubated with or without SBI-477 and then treated with or without insulin (100 nM) for 30 minutes. Glycogen synthesis rates were then measured as described (Halse, et al., J Biol Chem. 1999; 274(2):776-780). Briefly, differentiated primary human skeletal myotubes were treated with SBI-477 as described in the glucose uptake assay. Following incubation with SBI-477, cells were serum starved in α-MEM for 1 hour. The medium was replaced with α-MEM supplemented with [14C]-D-glucose (1 μCi/mL) for three hours and then treated in the absence or presence of insulin (100 nM) for 30 minutes. After incubation, the cells were washed three times with ice-cold PBS and then lysed in 30% potassium hydroxide (KOH) containing 6 mg/mL glycogen. For glycogen precipitation, the samples were added to ice-cold 100% ethanol for 18 hours at 4° C. The samples were centrifuged at 8,500×g for 10 minutes at 4° C. and the supernatant was discarded. After one wash with 75% ethanol, the glycogen precipitate was dissolved in distilled water. [14C]-D-glucose incorporated to glycogen was counted by liquid scintillation analyzer (PerkinElmer) and normalized to total protein.

[6] = system: human TXNIP promoter; assay: TXNIP promoter luciferase reporter assay in H9c2 myocytes; format: cell-based, rat; conditions: 24 hours
Experimental: Transient transfections were performed using Attractene (Qiagen) according to the manufacturer's protocols. A full length (1.5 kb) and two serial deletion (1.0 kb and 0.5 kb) reporters of the human TXNIP promoter were generously provided by Dr. Fumihiko Urano (Washington University School of Medicine). Mutation of the carbohydrate-responsive elements (ChoREs) of the reporters was generated by QuikChange II Site-Directed Mutagenesis kit (Agilent). H9c2 myoblast cells (ATCC) were cotransfected with 700 ng of the reporter and 25 ng of CMV promoter driven Renilla luciferase as a control for transfection efficiency. Eighteen hours after transfection, the cells were cultured in DMEM supplemented with 1% fetal bovine serum to induce differentiation for 4 days. SBI-477 was added during the last 24 hours at the indicated concentration. After compound incubation, luciferase activity was measured using the Dual-Glo luciferase assay system (Promega) according to the manufacturer's protocols.

[7] = biological target: T1, MondoA (Homo sapiens, UniProt Q9HAP2); assay: Intracellular localization of MondoA (immunolocalization); format: cell-based; conditions: human skeletal myoblasts; data not shown
T1 construct: endogenous in cells; host or cells: human skeletal myoblasts
T1 sequence (Q9HAP2 whole entry): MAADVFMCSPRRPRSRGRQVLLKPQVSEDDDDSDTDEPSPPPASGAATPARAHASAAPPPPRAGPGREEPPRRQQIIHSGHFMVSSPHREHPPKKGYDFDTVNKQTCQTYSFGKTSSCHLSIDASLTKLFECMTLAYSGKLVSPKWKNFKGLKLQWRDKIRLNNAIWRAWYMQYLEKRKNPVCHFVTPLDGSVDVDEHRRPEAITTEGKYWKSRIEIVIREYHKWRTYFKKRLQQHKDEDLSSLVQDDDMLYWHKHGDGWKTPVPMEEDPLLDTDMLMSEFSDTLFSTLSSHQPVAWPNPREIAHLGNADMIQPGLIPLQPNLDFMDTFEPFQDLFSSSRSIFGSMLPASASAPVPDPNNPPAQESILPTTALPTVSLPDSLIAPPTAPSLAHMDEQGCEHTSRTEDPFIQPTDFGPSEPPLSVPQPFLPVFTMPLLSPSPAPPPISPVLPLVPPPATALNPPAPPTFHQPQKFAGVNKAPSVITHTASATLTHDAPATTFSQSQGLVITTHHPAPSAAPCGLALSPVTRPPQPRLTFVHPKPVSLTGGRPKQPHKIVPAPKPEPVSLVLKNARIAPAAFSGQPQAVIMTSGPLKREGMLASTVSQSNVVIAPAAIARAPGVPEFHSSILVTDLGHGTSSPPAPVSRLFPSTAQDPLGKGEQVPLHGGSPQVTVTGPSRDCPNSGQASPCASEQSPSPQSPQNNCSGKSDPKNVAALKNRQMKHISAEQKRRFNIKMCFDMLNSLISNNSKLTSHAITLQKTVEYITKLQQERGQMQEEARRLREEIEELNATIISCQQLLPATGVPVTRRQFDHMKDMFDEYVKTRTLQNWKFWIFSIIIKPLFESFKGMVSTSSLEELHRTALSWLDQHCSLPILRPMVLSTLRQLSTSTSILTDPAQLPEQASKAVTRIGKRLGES
Experimental: The activity of ChREBP and MondoA is governed, in part, by nuclear-cytoplasmic shuttling mechanisms that are incompletely understood but likely involve glucose metabolites and phosphorylation (Stoltzman, et al., Proc Natl Acad Sci USA. 2008; 105(19):6912-6917; Filhoulaud, et al., Trends Endocrinol Metab. 2013; 24(5):257-268). Accordingly, the effect of SBI-477 on intracellular localization of MondoA was assessed. […] The results of immunoblotting studies conducted with fractionated cellular extracts further supported this conclusion (FIG. 5D).

SMILES: COc1ccc(-c2csc(NC(=O)c3ccc(OCC(=O)N4CCOCC4)c(OC)c3)n2)cc1 [Cpd. 7, 3-methoxy-N-(4-(4-methoxyphenyl)thiazol-2-yl)-4-(2-morpholino-2-oxoethoxy)benzamide]
- IC50 [1]: < 1000 nM
- Increase of basal and insulin stimulated glucose uptake [2]: approximately 84%
- Cellular fatty acid uptake [3]: not due to blocking cellular fatty acid uptake
- Gene expression of CD36 [4]: no effect
- Glycogen synthesis rates [5]: enhanced by SBI-477 treatment in a dose dependent manner
- TXNIP promoter activity (luciferase) [6]: decreased promoter activity in a dose dependent manner
- Nuclear localization of MondoA [7]: near complete nuclear exclusion of MondoA
